Test results published in US8268848B2, “Cyclopropane compound” (Eisai R&D Management Co., Ltd., priority 2010, dated 2012).
pIC50: −log10 of the molar value. Where two headings read alike, the source gives them in different places.

What was measured:
OX1 = target: T1, OX1 (Homo sapiens, UniProt O43613); test: Measurement of orexin receptor-binding ability ([125I]-OX-A, cell membranes, OX1); parameters: expressed in transfected cells; host or cells: CHO cells (membrane preparation)
T1 sequence (O43613 1-425): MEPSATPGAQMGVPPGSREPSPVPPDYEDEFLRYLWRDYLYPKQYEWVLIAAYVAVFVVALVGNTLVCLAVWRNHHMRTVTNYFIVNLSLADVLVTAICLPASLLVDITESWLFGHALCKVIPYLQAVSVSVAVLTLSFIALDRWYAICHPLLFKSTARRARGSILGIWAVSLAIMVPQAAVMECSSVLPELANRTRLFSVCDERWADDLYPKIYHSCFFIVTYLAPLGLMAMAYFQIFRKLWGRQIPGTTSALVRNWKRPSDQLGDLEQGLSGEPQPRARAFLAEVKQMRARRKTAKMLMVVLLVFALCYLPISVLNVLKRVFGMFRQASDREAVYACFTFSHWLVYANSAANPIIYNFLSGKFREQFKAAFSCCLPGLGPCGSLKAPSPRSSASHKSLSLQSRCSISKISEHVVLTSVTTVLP

OX2 = target: T2, OX2 (Homo sapiens, UniProt O43614); test: Measurement of orexin receptor-binding ability ([125I]-OX-A, cell membranes, OX2); parameters: expressed in transfected cells; host or cells: CHO cells (membrane preparation); settings: membranes of recombinant CHO cells expressing OX2, 0.2 nM [125I]-OX-A; for IC50: OX2 (IC50) nM; for pIC50: read-out: OX2 (IC50)
T2 sequence (O43614 1-444): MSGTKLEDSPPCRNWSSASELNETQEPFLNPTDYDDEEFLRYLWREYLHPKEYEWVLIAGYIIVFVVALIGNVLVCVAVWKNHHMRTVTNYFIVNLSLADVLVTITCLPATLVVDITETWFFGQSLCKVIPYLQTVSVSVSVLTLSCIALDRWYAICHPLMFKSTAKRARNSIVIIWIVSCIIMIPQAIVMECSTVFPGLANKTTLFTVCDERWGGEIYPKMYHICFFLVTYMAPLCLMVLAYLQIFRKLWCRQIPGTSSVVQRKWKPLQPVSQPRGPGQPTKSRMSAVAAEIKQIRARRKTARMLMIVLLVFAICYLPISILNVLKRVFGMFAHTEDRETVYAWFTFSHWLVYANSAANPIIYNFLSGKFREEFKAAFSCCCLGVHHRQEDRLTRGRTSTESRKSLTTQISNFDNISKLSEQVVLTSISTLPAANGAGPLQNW

[1] = membranes of recombinant CHO cells expressing OX1, 0.2 nM [125I]-OX-A, read-out: OX1 (IC50)

Row | Compound | pIC50 (OX1) | IC50 (OX2) [nM] | pIC50 (OX1; [1]) | pIC50 (OX2)
1 | COCc1nc(C)ncc1OC[C@@]1(c2ccc(F)cc2)C[C@H]1C(=O)Nc1ccc(F)cn1 [Example 202, (1R,2S)-2-(4-fluorophenyl)-N-(5-fluoropyridin-2-yl)-2-{[(4-methoxymethyl-2-methylpyrimidin-5-yl)oxy]methyl}cyclopropanecarboxamide] | 7.85 | 2 | – | –
2 | COCc1nc(C)ncc1OC[C@@]1(c2ccc(F)cc2)C[C@H]1C(=O)Nc1ccc(F)cc1 [Example 203, (1R,2S)-N,2-bis(4-fluorophenyl)-2-{[(4-methoxymethyl-2-methylpyrimidin-5-yl)oxy]methyl}cyclopropanecarboxamide] | – | – | 6.67 | 8.10
3 | COCc1nc(C)ncc1OC[C@@]1(c2ccc(F)cc2)C[C@H]1C(=O)Nc1ccc(Cl)cn1 [Example 204, (1R,2S)-N-(5-chloropyridin-2-yl)-2-(4-fluorophenyl)-2-{[(4-methoxymethyl-2-methylpyrimidin-5-yl)oxy]methyl}cyclopropanecarboxamide] | – | – | 7.66 | 8.30
4 | COCc1nc(C)ncc1OC[C@@]1(c2ccc(F)cc2)C[C@H]1C(=O)Nc1cc(C)c(F)cn1 [Example 205, (1R,2S)-N-(5-fluoro-4-methylpyridin-2-yl)-2-(4-fluorophenyl)-2-{[(4-methoxymethyl-2-methylpyrimidin-5-yl)oxy]methyl}cyclopropanecarboxamide] | 8.05 | 6 | – | –
5 | COCc1nc(C)ncc1OC[C@@]1(c2ccc(F)cc2)C[C@H]1C(=O)Nc1ccc(F)c(F)c1 [Example 207, (1R,2S)-N-(3,4-difluorophenyl)-2-(4-fluorophenyl)-2-{[(4-methoxymethyl-2-methylpyrimidin-5-yl)oxy]methyl}cyclopropanecarboxamide] | – | – | 6.96 | 8.05
6 | COCc1nc(C)ncc1OC[C@@]1(c2ccc(F)c(F)c2)C[C@H]1C(=O)Nc1ccccn1 [Example 211, (1R,2S)-2-(3,4-difluorophenyl)-2-{[(4-methoxymethyl-2-methylpyrimidin-5-yl)oxy]methyl}-N-(pyridin-2-yl)cyclopropanecarboxamide] | 7.70 | 4 | – | –
7 | COCc1nc(C)ncc1OC[C@@]1(c2ccc(F)c(F)c2)C[C@H]1C(=O)Nc1cc(C)c(F)cn1 [Example 212, (1R,2S)-2-(3,4-difluorophenyl)-N-(5-fluoro-4-methylpyridin-2-yl)-2-{[(4-methoxymethyl-2-methylpyrimidin-5-yl)oxy]methyl}cyclopropanecarboxamide] | – | – | 8.40 | 8.15
8 | COCc1nc(C)ncc1OC[C@@]1(c2ccc(F)c(F)c2)C[C@H]1C(=O)Nc1ccc(F)cc1 [Example 213] | – | – | 7.85 | 7.96
9 | COCc1nc(C)ncc1OC[C@@]1(c2cc(F)cc(F)c2)C[C@H]1C(=O)Nc1ccccn1 [Example 218, (1R,2S)-2-(3,5-difluorophenyl)-2-{[(4-methoxymethyl-2-methylpyrimidin-5-yl)oxy]methyl}-N-(pyridin-2-yl)cyclopropanecarboxamide] | – | – | 8.00 | 8.52
10 | COCc1nc(C)ncc1OC[C@@]1(c2cc(F)cc(F)c2)C[C@H]1C(=O)Nc1ccc(F)cc1 [Example 219, (1R,2S)-2-(3,5-difluorophenyl)-N-(4-fluorophenyl)-2-{[(4-methoxymethyl-2-methylpyrimidin-5-yl)oxy]methyl}cyclopropanecarboxamide] | – | – | 8.00 | 8.52
11 | COCc1nc(C)ncc1OC[C@@]1(c2cc(F)cc(F)c2)C[C@H]1C(=O)Nc1ccc(F)c(F)c1 [Example 221, (1R,2S)-N-(3,4-difluorophenyl)-2-(3,5-difluorophenyl)-2-{[(4-methoxymethyl-2-methylpyrimidin-5-yl)oxy]methyl}cyclopropanecarboxamide] | – | – | > 8.70 | 8.52
12 | COCc1nc(C)ncc1OC[C@@]1(c2cccc(Cl)c2)C[C@H]1C(=O)Nc1ccccn1 [Example 225, (1R,2S)-2-(3-chlorophenyl)-2-{[(4-methoxymethyl-2-methylpyrimidin-5-yl)oxy]methyl}-N-(pyridin-2-yl)cyclopropanecarboxamide] | – | – | 8.22 | 8.52
13 | COCCc1nc(C)ncc1OC[C@@]1(c2cccc(F)c2)C[C@H]1C(=O)Nc1cc(C)c(F)cn1 [Example 229, (1R,2S)-N-(5-fluoro-4-methylpyridin-2-yl)-2-(3-fluorophenyl)-2-{[(4-methoxyethyl-2-methylpyrimidin-5-yl)oxy]methyl}cyclopropanecarboxamide] | 7.72 | 4 | – | –
14 | COCc1nc(C)ncc1OC[C@@]1(c2cc(F)cc(OC)c2)C[C@H]1C(=O)Nc1ccc(F)c(F)c1 [Example 232, (1R,2S)-N-(3,4-difluorophenyl)-2-(3-fluoro-5-methoxyphenyl)-2-{[(4-methoxymethyl-2-methylpyrimidin-5-yl)oxy]methyl}cyclopropanecarboxamide] | – | – | 9.00 | 8.52
15 | COCc1nc(C)ncc1OC[C@@]1(c2cc(F)cc(OC)c2)C[C@H]1C(=O)Nc1cc(C)c(F)cn1 [Example 234, (1R,2S)-2-(3-fluoro-5-methoxyphenyl)-N-(5-fluoro-4-methylpyridin-2-yl)-2-{[(4-methoxymethyl-2-methylpyrimidin-5-yl)oxy]methyl}cyclopropanecarboxamide] | – | – | > 8.70 | 8.40
16 | COCc1nc(C)ncc1OC[C@@]1(c2cc(F)cc(OC)c2)C[C@H]1C(=O)Nc1cccc(F)c1 [Example 236, (1R,2S)-2-(3-fluoro-5-methoxyphenyl)-N-(3-fluorophenyl)-2-{[(4-methoxymethyl-2-methylpyrimidin-5-yl)oxy]methyl}cyclopropanecarboxamide] | 7.68 | 5 | – | –
17 | CCc1nc(C)ncc1OC[C@@]1(c2cccc(F)c2)C[C@H]1C(=O)Nc1ccc(F)cn1 [Example 241, (1R,2S)-2-{[(4-ethyl-2-methylpyrimidin-5-yl)oxy]methyl}-2-(3-fluorophenyl)-N-(5-fluoropyridin-2-yl)cyclopropanecarboxamide] | 8.70 | 2.2 | – | –
18 | CCc1nc(C)ncc1OC[C@@]1(c2cccc(F)c2)C[C@H]1C(=O)Nc1ccc(C#N)cn1 [Example 242, (1R,2S)-N-(5-cyanopyridin-2-yl)-2-{[(4-ethyl-2-methylpyrimidin-5-yl)oxy]methyl}-2-(3-fluorophenyl)cyclopropanecarboxamide] | – | – | 8.22 | 8.40
19 | CCc1nc(C)ncc1OC[C@@]1(c2cccc(F)c2)C[C@H]1C(=O)Nc1ccc(Cl)cn1 [Example 243, (1R,2S)-N-(5-chloropyridin-2-yl)-2-{[(4-ethyl-2-methylpyrimidin-5-yl)oxy]methyl}-2-(3-fluorophenyl)cyclopropanecarboxamide] | 8.70 | 3.3 | – | –
20 | CCc1nc(C)ncc1OC[C@@]1(c2cccc(F)c2)C[C@H]1C(=O)Nc1cc(C)c(F)cn1 [Example 244, (1R,2S)-2-{[(4-ethyl-2-methylpyrimidin-5-yl)oxy]methyl}-N-(5-fluoro-4-methylpyridin-2-yl)-2-(3-fluorophenyl)cyclopropanecarboxamide] | – | – | 8.52 | 8.28
21 | CCc1nc(C)ncc1OC[C@@]1(c2ccc(F)cc2)C[C@H]1C(=O)Nc1ccccn1 [Example 245, (1R,2S)-2-{[(4-ethyl-2-methylpyrimidin-5-yl)oxy]methyl}-2-(4-fluorophenyl)-N-(pyridin-2-yl)cyclopropanecarboxamide] | 7.19 | 10 | – | –
22 | CCc1nc(C)ncc1OC[C@@]1(c2ccc(F)cc2)C[C@H]1C(=O)Nc1ccc(F)cn1 [Example 246, (1R,2S)-2-{[(4-ethyl-2-methylpyrimidin-5-yl)oxy]methyl}-2-(4-fluorophenyl)-N-(5-fluoropyridin-2-yl)cyclopropanecarboxamide] | 7.80 | 4 | – | –
23 | CCc1nc(C)ncc1OC[C@@]1(c2ccc(F)cc2)C[C@H]1C(=O)Nc1cc(Cl)ccn1 [Example 247, (1R,2S)-N-(4-chloropyridin-2-yl)-2-{[(4-ethyl-2-methylpyrimidin-5-yl)oxy]methyl}-2-(4-fluorophenyl)cyclopropanecarboxamide] | – | – | 7.66 | 8.52
24 | CCc1nc(C)ncc1OC[C@@]1(c2ccc(F)cc2)C[C@H]1C(=O)Nc1cc(C)c(F)cn1 [Example 248, (1R,2S)-2-{[(4-ethyl-2-methylpyrimidin-5-yl)oxy]methyl}-N-(5-fluoro-4-methylpyridin-2-yl)-2-(4-fluorophenyl)cyclopropanecarboxamide] | – | – | 8.00 | 8.52
